Test results from US11253525B2, “Inhibitors of indoleamine 2,3-dioxygenase and methods of their use” (BRISTOL-MYERS SQUIBB COMPANY, priority 2018, dated 2022).
Where two headings read alike, the source gives them in different places.

Key:
human IDO1 = target: T1, human IDO1 (Homo sapiens, UniProt P14902); assay: HEK293 cell-based indoleamine 2,3-dioxygenase (IDO) assay; conditions: human IDO1/HEK293 cells, 20 hours
T1 construct: expressed in transfected cells
Experimental: Assessment of Inhibitor Activity in HEK293 Cell-Based Indoleamine 2,3-Dioxygenase (IDO) Assay
HEK293 cells were transfected with a pCDNA-based mammalian expression vector harboring human IDO1 cDNA (NM 002164.2) by electroporation. They were cultured in medium (DMEM with 10% FBS) containing 1 mg/ml G418 for two weeks. Clones of HEK293 cells that stably expressed human IDO1 protein were selected and expanded for IDO inhibition assay.
The human IDO1/HEK293 cells were seeded at 10,000 cells per 50 μL per well with RPMI/phenol red free media contains 10% FBS in a 384-well black wall clear bottom tissue culture plate (Matrix Technologies LLC) 100 nL of certain concentration of compound was then added to each well using ECHO liquid handling systems. The cells were incubated for 20 hours in 37° C. incubator with 5% CO2.
The compound treatments were stopped by adding trichloroacetic acid (Sigma-Aldrich) to a final concentration at 0.2%. The cell plate was further incubated at 50° C. for 30 minute. The equal volume supernatant (20 μL) and 0.2% (w/v) Ehrlich reagent (4-dimethylaminobenzaldehyde, Sigma-Aldrich) in glacial acetic acid were mixed in a new clear bottom 384-well plate. This plate was then incubated at room temperature for 30 minute. The absorbance at 490 nm was measured on Envision plate reader.
Compound IC50 values were calculated using the counts of 500 nM of a reference standard treatment as one hundred percent inhibition, and counts of no compound but DMSO treatment as zero percent inhibition.

[1] = target: T2, indoleamine 2,3-dioxygenase (IDO) (Homo sapiens, UniProt P14902); assay: HeLa cell-based indoleamine 2,3-dioxygenase (IDO) assay, kynurenine production; conditions: HeLa cells, IFNγ 25 ng/mL, 48 hour incubation
T2 construct: replaced with media containing IFNγ (#285-IF/CF, R&D Systems) at a final concentration of 25 ng/mL; endogenous in cells; host or cells: HeLa (ATCC CCL-2), IFN-gamma stimulated

[2] = read-out: IDO1 HEK Human IC50 class (A < 50, B < 250, C < 2000)
[3] = read-out: IDO Hela IC50 class (A < 50, B < 250, C < 2000)

T1 sequence (P14902 whole entry): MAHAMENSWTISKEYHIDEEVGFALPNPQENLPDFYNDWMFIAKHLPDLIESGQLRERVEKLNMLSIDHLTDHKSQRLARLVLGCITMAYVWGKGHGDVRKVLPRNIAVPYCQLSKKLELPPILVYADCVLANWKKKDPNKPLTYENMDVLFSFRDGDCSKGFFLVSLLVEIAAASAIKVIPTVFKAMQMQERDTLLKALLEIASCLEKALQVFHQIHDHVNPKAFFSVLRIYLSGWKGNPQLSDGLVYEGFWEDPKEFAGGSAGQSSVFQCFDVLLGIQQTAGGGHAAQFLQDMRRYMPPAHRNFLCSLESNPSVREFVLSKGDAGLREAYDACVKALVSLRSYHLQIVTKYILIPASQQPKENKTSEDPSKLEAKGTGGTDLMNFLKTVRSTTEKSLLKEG
T2 sequence (P14902 whole entry): as above

| Compound | IC50 (human IDO1; read-out: IDO1 HEK Human IC50) | IC50 (human IDO1; [2]) | IC50 [1, 3] | IC50 ([1]; read-out: IDO Hela IC50) |
| --- | --- | --- | --- | --- |
| CCOC(C)(C)c1ccc([C@@H](CC)CC(=O)O)cc1NC(=O)Nc1ccc(C)cc1 (single isomer, unassigned) [Example 2] | 0.224 µM | 0.25 to 2 µM | – | – |
| CCOC(C)(C)c1ccc([C@@H](CC)CC(=O)O)cc1Nc1ccc2nc(C)sc2c1 (single isomer, unassigned) [Example 4] | – | 0.25 to 2 µM | – | – |
| CCO[C@@H](c1ccc(F)cc1)c1cc(Nc2ccc(Cl)cc2)cc([C@H](CC)CC(=O)O)c1 (single isomer, unassigned) [Example 112-1] | 0.002 µM | – | < 0.05 µM | – |
| CCO[C@@H](c1ccc(F)cc1)c1cc(Nc2ccc(Cl)cc2)cc([C@@H](CC)CC(=O)O)c1 (single isomer, unassigned) [Example 112-2] | 0.007 µM | – | – | 0.03 µM |
| CCO[C@@H](c1ccc(F)cc1)c1cc(Nc2ccc3nc(C)sc3c2)cc([C@@H](CC)CC(=O)O)c1 (single isomer, unassigned) [Example 115] | 1.2 µM | – | – | – |
| CCO[C@H](c1ccc(F)cc1)c1cc(Nc2ccc3nc(C)sc3c2)cc([C@@H](CC)CC(=O)O)c1 (single isomer, unassigned) [Example 117] | – | 0.25 to 2 µM | – | – |
| CCO[C@H](c1ccc([C@@H](CC)CC(=O)O)cc1Nc1ccc(Cl)cc1)C(F)(F)F (stereo in doubt) [Example 23, (S)-3-(3-((4-chlorophenyl)amino)-4-((R)-1-ethoxy-2,2,2-trifluoroethyl)phenyl)pentanoic acid] | 0.001 µM | – | – | – |
| CC(C)CC(CC(C)C)c1ccc(-c2ccccc2-c2nn[nH]n2)cc1NC(=O)Nc1ccc(Cl)cc1F [Example 135, 1-(4-Chloro-2-fluorophenyl)-3-(4-(2,6-dimethylheptan-4-yl)-2′-(2H-tetrazol-5-yl)-[1,1′-biphenyl]-3-yl)urea] | 0.01 µM | – | – | 0.01 µM |

Second part, the molecule after the results:

| IC50 (human IDO1; read-out: IDO1 HEK Human IC50) | IC50 (human IDO1; [2]) | IC50 [1, 3] | IC50 ([1]; read-out: IDO Hela IC50) | Compound |
| --- | --- | --- | --- | --- |
| – | 0.25 to 2 µM | – | – | CCOC(C)(C)c1ccc(C(CC)CC(=O)O)cc1Nc1ccc2nc(C)sc2c1 (single isomer, unassigned) [Example 3] |
| 0.095 µM | – | – | – | CCOC(C)(C)c1ccc([C@@H](CC)CC(=O)O)cc1Nc1ccc(Cl)cc1 (single isomer, unassigned) [Example 5] |
| – | 0.25 to 2 µM | – | – | CCOc1ncc(Nc2cc([C@@H](CC)CC(=O)O)ccc2C(C)(C)OCC)cn1 (single isomer, unassigned) [Example 6] |
| 0.001 µM | – | < 0.05 µM | – | CCO[C@H](c1ccc([C@H](CC)CC(=O)O)cc1Nc1ccc(Cl)cc1)C(F)(F)F (single isomer, unassigned) [Example 11] |
| 0.02 µM | – | – | 0.02 µM | CCO[C@H](c1ccc(F)cc1)c1cc(Nc2ccc(Cl)cc2)cc([C@H](CC)CC(=O)O)c1 (single isomer, unassigned) [Example 113-1] |
| 0.131 µM | – | – | – | CCO[C@H](c1ccc(F)cc1)c1cc(Nc2ccc(Cl)cc2)cc([C@@H](CC)CC(=O)O)c1 (single isomer, unassigned) [Example 113-2] |
| 0.023 µM | – | – | 0.02 µM | CCO[C@@H](c1ccc(F)cc1)c1cc(Nc2ccc3nc(C)sc3c2)cc([C@H](CC)CC(=O)O)c1 (single isomer, unassigned) [Example 114] |
| 0.108 µM | – | – | – | CCO[C@H](c1ccc(F)cc1)c1cc(Nc2ccc3nc(C)sc3c2)cc([C@H](CC)CC(=O)O)c1 (single isomer, unassigned) [Example 116] |
| 0.001 µM | – | < 0.05 µM | – | CCO[C@@H](c1ccc([C@H](CC)CC(=O)O)cc1Nc1ccc(Cl)cc1)C(F)(F)F (stereo in doubt) [Example 34, (R)-3-(3-((4-chlorophenyl)amino)-4-((S)-1-ethoxy-2,2,2-trifluoroethyl)phenyl)pentanoic acid] |
| 0.02 µM | – | – | – | Cc1ccc(NC(=O)Nc2cc(-c3ccccc3-c3nn[nH]n3)ccc2C(CC(C)C)CC(C)C)cc1 [Example 134, 1-(4-(2,6-dimethylheptan-4-yl)-2′-(2H-tetrazol-5-yl)-[1,1′-biphenyl]-3-yl)-3-(p-tolyl)urea] |
| 0.019 µM | – | – | – | Cc1cc(NC(=O)Nc2cc(-c3ccccc3-c3nn[nH]n3)ccc2C(CC(C)C)CC(C)C)no1 [Example 136, 1-(4-(2,6-Dimethylheptan-4-yl)-2′-(2H-tetrazol-5-yl)-[1,1′-biphenyl]-3-yl)-3-(5-methylisoxazol-3-yl)urea] |
| 0.004 µM | – | < 0.05 µM | – | CC[C@@H](CC(=O)O)c1ccc(C(CC(C)C)CC(C)C)c(NC(=O)Nc2ccc(C)cc2)c1 [Example 137, (S)-3-(4-(2,6-Dimethylheptan-4-yl)-3-(3-(p-tolyl)ureido)phenyl)pentanoic Acid] |
| 0.464 µM | – | – | – | Cc1ccc(NC(=O)Nc2cc(OCC(=O)O)ccc2C(CC(C)C)CC(C)C)cc1 [Example 138, 2-(4-(2,6-Dimethylheptan-4-yl)-3-(3-(p-tolyl)ureido)phenoxy)acetic acid] |
